Converted amounts (≈) assume the structure as drawn. Each block holds one compound with its values, some of them ahead of it.
Key:
Test in all cases: In vitro MIC, 2010 surveillance isolates
[1] = tested on: E. coli ESBL−; format: cell-based, Escherichia coli
[2] = tested on: E. coli ESBL+; format: cell-based, Escherichia coli
[3] = tested on: K. pneumoniae ESBL−; format: cell-based, Klebsiella pneumoniae
[4] = tested on: K. pneumoniae ESBL+; format: cell-based, Klebsiella pneumoniae
[5] = tested on: K. oxytoca; format: cell-based; set-up: MIC90: unit: µg/mL
[6] = tested on: E. cloacae CeftazS; format: cell-based
[7] = tested on: E. cloacae CeftazR; format: cell-based
[8] = tested on: Enterobacter spp; format: cell-based
[9] = tested on: A. baumanii; format: cell-based
[10] = tested on: Acinetobacter spp; format: cell-based

MIC90 ([1]; Asia/Pac, N=282): 4 µg/mL (≈ 6.83 µM)
MIC90 ([1]; Europe, N=1533): 4 µg/mL (≈ 6.83 µM)
MIC90 ([1]; L. Amer, N=389): 4 µg/mL (≈ 6.83 µM)
MIC90 ([1]; N America, N=1172): 4 µg/mL (≈ 6.83 µM)
MIC90 ([2]; Asia/Pac, N=219): 8 µg/mL (≈ 13.7 µM)
MIC90 ([2]; Europe, N=274): 8 µg/mL (≈ 13.7 µM)
MIC90 ([2]; L. Amer, N=168): 8 µg/mL (≈ 13.7 µM)
MIC90 ([2]; N America, N=134): 8 µg/mL (≈ 13.7 µM)
MIC90 ([3]; Asia/Pac, N=189): 2 µg/mL (≈ 3.42 µM)
MIC90 ([3]; Europe, N=361): 2 µg/mL (≈ 3.42 µM)
MIC90 ([3]; L. Amer, N=160): 2 µg/mL (≈ 3.42 µM)
MIC90 ([3]; N America, N=671): 2 µg/mL (≈ 3.42 µM)
MIC90 ([4]; Asia/Pac, N=124): > 32 µg/mL
MIC90 ([4]; Europe, N=151): 32 µg/mL (≈ 54.6 µM)
MIC90 ([4]; L. Amer, N=209): > 32 µg/mL
MIC90 ([4]; N America, N=108): 32 µg/mL (≈ 54.6 µM)
MIC90 ([5]; Asia/Pac, N=17): 2 µg/mL (≈ 3.42 µM)
MIC90 ([5]; Europe, N=158): 2 µg/mL (≈ 3.42 µM)
MIC90 ([5]; L. Amer, N=25): 32 µg/mL (≈ 54.6 µM)
MIC90 ([5]; N America, N=177): 2 µg/mL (≈ 3.42 µM)
MIC90 ([6]; Asia/Pac, N=100): 2 µg/mL (≈ 3.42 µM)
MIC90 ([6]; Europe, N=183): 2 µg/mL (≈ 3.42 µM)
MIC90 ([6]; L. Amer, N=57): 16 µg/mL (≈ 27.3 µM)
MIC90 ([6]; N America, N=210): 2 µg/mL (≈ 3.42 µM)
MIC90 ([7]; Asia/Pac, N=63): 16 µg/mL (≈ 27.3 µM)
MIC90 ([7]; Europe, N=72): 8 µg/mL (≈ 13.7 µM)
MIC90 ([7]; L. Amer, N=42): 16 µg/mL (≈ 27.3 µM)
MIC90 ([7]; N America, N=77): 4 µg/mL (≈ 6.83 µM)
MIC90 ([8]; Asia/Pac, N=52): 2 µg/mL (≈ 3.42 µM)
MIC90 ([8]; Europe, N=82): 4 µg/mL (≈ 6.83 µM)
MIC90 ([8]; L. Amer, N=42): 4 µg/mL (≈ 6.83 µM)
MIC90 ([8]; N America, N=101): 2 µg/mL (≈ 3.42 µM)
MIC90 ([9]; Asia/Pac, N=275): > 32 µg/mL
MIC90 ([9]; Europe, N=145): > 32 µg/mL
MIC90 ([9]; L. Amer, N=275): > 32 µg/mL
MIC90 ([9]; N America, N=154): > 32 µg/mL
MIC90 ([10]; Europe, N=43): > 32 µg/mL
MIC90 ([10]; N America, N=42): 8 µg/mL (≈ 13.7 µM)
SMILES: NCC[C@H](O)C(=O)N[C@@H]1C[C@H](N)[C@@H](O[C@H]2O[C@H](CN)[C@@H](O)[C@H](O)[C@H]2O)[C@H](O)[C@H]1O[C@H]1O[C@H](CO)[C@@H](O)[C@H](N)[C@H]1O [Amikacin]
% R (resistance) ([1]; Asia/Pac, Eucast breakpoints): 0.4%
% R (resistance) ([1]; Europe, Eucast breakpoints): 0.3%
% R (resistance) ([1]; L. Amer, CLSI breakpoints): 0%
% R (resistance) ([1]; N America, CLSI breakpoints): 0%
% R (resistance) ([2]; Asia/Pac, Eucast breakpoints): 8.2%
% R (resistance) ([2]; Europe, Eucast breakpoints): 2.2%
% R (resistance) ([2]; L. Amer, CLSI breakpoints): 1.2%
% R (resistance) ([2]; N America, CLSI breakpoints): 0.7%
% R (resistance) ([3]; Asia/Pac, Eucast breakpoints): 0.5%
% R (resistance) ([3]; Europe, Eucast breakpoints): 0.3%
% R (resistance) ([3]; L. Amer, CLSI breakpoints): 0%
% R (resistance) ([3]; N America, CLSI breakpoints): 0%
% R (resistance) ([4]; Asia/Pac, Eucast breakpoints): 23.4%
% R (resistance) ([4]; Europe, Eucast breakpoints): 15.9%
% R (resistance) ([4]; L. Amer, CLSI breakpoints): 14.8%
% R (resistance) ([4]; N America, CLSI breakpoints): 2.8%
% R (resistance) ([5]; Asia/Pac, Eucast breakpoints): 0%
% R (resistance) ([5]; Europe, Eucast breakpoints): 0%
% R (resistance) ([5]; L. Amer, CLSI breakpoints): 8%
% R (resistance) ([5]; N America, CLSI breakpoints): 0%
% R (resistance) ([6]; Asia/Pac, Eucast breakpoints): 1%
% R (resistance) ([6]; Europe, Eucast breakpoints): 1.1%
% R (resistance) ([6]; L. Amer, CLSI breakpoints): 0%
% R (resistance) ([6]; N America, CLSI breakpoints): 0%
% R (resistance) ([7]; Asia/Pac, Eucast breakpoints): 9.5%
% R (resistance) ([7]; Europe, Eucast breakpoints): 1.4%
% R (resistance) ([7]; L. Amer, CLSI breakpoints): 7.1%
% R (resistance) ([7]; N America, CLSI breakpoints): 0%
% R (resistance) ([8]; Asia/Pac, Eucast breakpoints): 3.8%
% R (resistance) ([8]; Europe, Eucast breakpoints): 0%
% R (resistance) ([8]; L. Amer, CLSI breakpoints): 0%
% R (resistance) ([8]; N America, CLSI breakpoints): 1%
% R (resistance) ([9]; Asia/Pac, Eucast breakpoints): 74.9%
% R (resistance) ([9]; Europe, Eucast breakpoints): 58.6%
% R (resistance) ([9]; L. Amer, CLSI breakpoints): 57.5%
% R (resistance) ([9]; N America, CLSI breakpoints): 42.9%
% R (resistance) ([10]; Asia/Pac, Eucast breakpoints): 22.2%
% R (resistance) ([10]; Europe, Eucast breakpoints): 39.5%
% R (resistance) ([10]; L. Amer, CLSI breakpoints): 22.2%
% R (resistance) ([10]; N America, CLSI breakpoints): 9.5%

MIC90 ([1]; Asia/Pac, N=282): 1 µg/mL (≈ 2.08 µM)
MIC90 ([1]; Europe, N=1533): ≤ 0.12 µg/mL
MIC90 ([1]; L. Amer, N=389): ≤ 0.12 µg/mL
MIC90 ([1]; N America, N=1172): ≤ 0.12 µg/mL
MIC90 ([2]; Asia/Pac, N=219): > 16 µg/mL
MIC90 ([2]; Europe, N=274): > 16 µg/mL
MIC90 ([2]; L. Amer, N=168): > 16 µg/mL
MIC90 ([2]; N America, N=134): > 16 µg/mL
MIC90 ([3]; Asia/Pac, N=189): ≤ 0.12 µg/mL
MIC90 ([3]; Europe, N=361): ≤ 0.12 µg/mL
MIC90 ([3]; L. Amer, N=160): ≤ 0.12 µg/mL
MIC90 ([3]; N America, N=671): ≤ 0.12 µg/mL
MIC90 ([4]; Asia/Pac, N=124): > 16 µg/mL
MIC90 ([4]; Europe, N=151): > 16 µg/mL
MIC90 ([4]; L. Amer, N=209): > 16 µg/mL
MIC90 ([4]; N America, N=108): > 16 µg/mL
MIC90 ([5]; Asia/Pac, N=17): > 16 µg/mL
MIC90 ([5]; Europe, N=158): 1 µg/mL (≈ 2.08 µM)
MIC90 ([5]; L. Amer, N=25): >16 (16)
MIC90 ([5]; N America, N=177): 0.25 µg/mL (≈ 0.52 µM)
MIC90 ([6]; Asia/Pac, N=100): ≤ 0.12 µg/mL
MIC90 ([6]; Europe, N=183): 0.25 µg/mL (≈ 0.52 µM)
MIC90 ([6]; L. Amer, N=57): > 16 µg/mL
MIC90 ([6]; N America, N=210): ≤ 0.12 µg/mL
MIC90 ([7]; Asia/Pac, N=63): > 16 µg/mL
MIC90 ([7]; Europe, N=72): > 16 µg/mL
MIC90 ([7]; L. Amer, N=42): > 16 µg/mL
MIC90 ([7]; N America, N=77): 16 µg/mL (≈ 33.3 µM)
MIC90 ([8]; Asia/Pac, N=52): 1 µg/mL (≈ 2.08 µM)
MIC90 ([8]; Europe, N=82): 1 µg/mL (≈ 2.08 µM)
MIC90 ([8]; L. Amer, N=42): > 16 µg/mL
MIC90 ([8]; N America, N=101): 0.5 µg/mL (≈ 1.04 µM)
MIC90 ([9]; Asia/Pac, N=275): > 16 µg/mL
MIC90 ([9]; Europe, N=145): > 16 µg/mL
MIC90 ([9]; L. Amer, N=275): > 16 µg/mL
MIC90 ([9]; N America, N=154): > 16 µg/mL
MIC90 ([10]; Europe, N=43): > 16 µg/mL
MIC90 ([10]; N America, N=42): > 16 µg/mL
SMILES: CO/N=C(\C(=O)N[C@@H]1C(=O)N2C(C(=O)[O-])=C(C[N+]3(C)CCCC3)CS[C@H]12)c1csc(N)n1 [Cefepime]
% R (resistance) ([1]; Asia/Pac, Eucast breakpoints): 0%
% R (resistance) ([1]; Europe, Eucast breakpoints): 0.1%
% R (resistance) ([1]; L. Amer, CLSI breakpoints): 0%
% R (resistance) ([1]; N America, CLSI breakpoints): 0%
% R (resistance) ([2]; Asia/Pac, Eucast breakpoints): 73.5%
% R (resistance) ([2]; Europe, Eucast breakpoints): 69%
% R (resistance) ([2]; L. Amer, CLSI breakpoints): 47%
% R (resistance) ([2]; N America, CLSI breakpoints): 38.8%
% R (resistance) ([3]; Asia/Pac, Eucast breakpoints): 0%
% R (resistance) ([3]; Europe, Eucast breakpoints): 0%
% R (resistance) ([3]; L. Amer, CLSI breakpoints): 0%
% R (resistance) ([3]; N America, CLSI breakpoints): 0%
% R (resistance) ([4]; Asia/Pac, Eucast breakpoints): 65.3%
% R (resistance) ([4]; Europe, Eucast breakpoints): 76.8%
% R (resistance) ([4]; L. Amer, CLSI breakpoints): 69.4%
% R (resistance) ([4]; N America, CLSI breakpoints): 43.5%
% R (resistance) ([5]; Asia/Pac, Eucast breakpoints): 23.5%
% R (resistance) ([5]; Europe, Eucast breakpoints): 4.4%
% R (resistance) ([5]; N America, CLSI breakpoints): 0%
% R (resistance) ([6]; Asia/Pac, Eucast breakpoints): 2%
% R (resistance) ([6]; Europe, Eucast breakpoints): 1.1%
% R (resistance) ([6]; L. Amer, CLSI breakpoints): 10.5%
% R (resistance) ([6]; N America, CLSI breakpoints): 0%
% R (resistance) ([7]; Asia/Pac, Eucast breakpoints): 38.1%
% R (resistance) ([7]; Europe, Eucast breakpoints): 25%
% R (resistance) ([7]; L. Amer, CLSI breakpoints): 26.2%
% R (resistance) ([7]; N America, CLSI breakpoints): 6.5%
% R (resistance) ([8]; Asia/Pac, Eucast breakpoints): 5.8%
% R (resistance) ([8]; Europe, Eucast breakpoints): 2.4%
% R (resistance) ([8]; L. Amer, CLSI breakpoints): 14.3%
% R (resistance) ([8]; N America, CLSI breakpoints): 1%
% R (resistance) ([9]; L. Amer, CLSI breakpoints): 78.9%
% R (resistance) ([9]; N America, CLSI breakpoints): 61.7%
% R (resistance) ([10]; L. Amer, CLSI breakpoints): 55.6%
% R (resistance) ([10]; N America, CLSI breakpoints): 16.7%

Reference: patent US10238670B2, “9-aminomethyl minocycline compounds and methods of use thereof in urinary tract infection (UTI) treatment” (Paratek Pharmaceuticals, Inc., priority 2016, dated 2019)
